Laboratory results: US12485169B2, “Compounds” (GREY WOLF THERAPEUTICS LIMITED, priority 2018, dated 2025)

Biological target: T1, Purified ERAP1 (37-941)-10His (ERAP1) (Homo sapiens, UniProt Q9NZ08)
T1 construct: Purified ERAP1 (37-941)-10His (ERAP1)
Experiment: ERAP1 mediated hydrolysis of an amide substrate (10-mer inhibition assay), biochemical system
Settings: 10-mer substrate, 23° C., 1 h, excitation 279 nm / emission 355 nm; read-out: IC50 vs Decapeptide WRVYEKC(Dnp)ALK-acid (where Dnp is Dinitrophenyl maleimide) (10-mer)

T1 sequence (Q9NZ08 37-941): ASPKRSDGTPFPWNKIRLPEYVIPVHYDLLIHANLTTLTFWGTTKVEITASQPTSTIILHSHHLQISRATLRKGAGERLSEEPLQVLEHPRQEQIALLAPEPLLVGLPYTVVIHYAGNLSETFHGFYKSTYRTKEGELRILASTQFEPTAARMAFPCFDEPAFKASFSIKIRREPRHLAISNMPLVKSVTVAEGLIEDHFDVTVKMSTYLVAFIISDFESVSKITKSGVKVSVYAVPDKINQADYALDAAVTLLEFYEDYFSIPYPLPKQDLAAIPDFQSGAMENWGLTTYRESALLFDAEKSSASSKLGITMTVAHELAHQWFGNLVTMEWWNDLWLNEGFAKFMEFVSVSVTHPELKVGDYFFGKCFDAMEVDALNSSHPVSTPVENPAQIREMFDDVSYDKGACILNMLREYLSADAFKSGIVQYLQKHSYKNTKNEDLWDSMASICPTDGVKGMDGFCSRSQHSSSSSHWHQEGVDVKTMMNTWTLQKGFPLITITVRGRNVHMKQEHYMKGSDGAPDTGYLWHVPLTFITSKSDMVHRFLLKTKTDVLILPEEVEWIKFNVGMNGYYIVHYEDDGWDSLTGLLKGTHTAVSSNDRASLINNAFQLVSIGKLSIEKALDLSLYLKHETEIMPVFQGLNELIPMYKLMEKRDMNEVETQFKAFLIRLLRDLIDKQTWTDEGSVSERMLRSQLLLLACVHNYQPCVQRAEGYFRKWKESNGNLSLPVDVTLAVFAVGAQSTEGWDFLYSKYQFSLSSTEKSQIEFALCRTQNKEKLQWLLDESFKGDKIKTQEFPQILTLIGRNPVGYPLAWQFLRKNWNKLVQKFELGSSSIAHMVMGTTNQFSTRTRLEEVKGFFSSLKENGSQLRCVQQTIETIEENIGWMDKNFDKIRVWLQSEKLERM

Row | Compound | IC50 [µM]
1 | C[C@@H]1C[C@H](C)CN(c2ccc(C#N)cc2NS(=O)(=O)c2cc(C(=O)O)ccc2C2CC2)C1 [Example 328, 3-(N-(5-cyano-2-(cis-3,5-dimethylpiperidin-1-yl)phenyl)sulfamoyl)-4-cyclopropylbenzoic acid] | < 0.5
2 | NS(=O)(=O)c1ccc(N2CCCCC2)c(NS(=O)(=O)c2cc(C(=O)O)ccc2C2CC2)c1 [Example 329, 4-cyclopropyl-3-(N-(2-(piperidin-1-yl)-5-sulfamoylphenyl)sulfamoyl)benzoic acid] | < 0.5
3 | N#Cc1ccc(N2CCCCC2)c(NS(=O)(=O)c2cc(C(=O)O)ccc2C2CCC2)c1 [Example 330, 3-(N-(5-cyano-2-(piperidin-1-yl)phenyl)sulfamoyl)-4-cyclobutylbenzoic acid] | < 0.5
4 | CS(=O)(=O)c1cc(NS(=O)(=O)c2cc(C(=O)O)ccc2C2CC2)c(N2CCCCC2)cc1F [Example 331, 4-cyclopropyl-3-(N-(4-fluoro-5-(methylsulfonyl)-2-(piperidin-1-yl)phenyl)sulfamoyl)benzoic acid] | < 0.5
5 | CS(=O)(=O)c1cc(NS(=O)(=O)c2cc(C(=O)O)ccc2C2CC2)c(N2CCCCC2)cc1Cl [Example 332, 3-(N-(4-chloro-5-(methylsulfonyl)-2-(piperidin-1-yl)phenyl)sulfamoyl)-4-cyclopropylbenzoic acid] | < 0.5
6 | O=C(O)c1ccc(C2CC2)c(S(=O)(=O)Nc2cc(-n3cnnn3)c(F)cc2N2CCCCC2)c1 [Example 333, 4-cyclopropyl-3-(N-(4-fluoro-2-(piperidin-1-yl)-5-(tetrazol-1-yl)phenyl)sulfamoyl)benzoic acid] | < 0.5
7 | O=C(O)c1ccc(C2CC2)c(S(=O)(=O)Nc2cc(-n3cnnn3)c(Cl)cc2N2CCCCC2)c1 [Example 334, 3-(N-(4-chloro-2-(piperidin-1-yl)-5-(tetrazol-1-yl)phenyl)sulfamoyl)-4-cyclopropylbenzoic acid] | < 0.5
8 | [2H]C1([2H])C([2H])([2H])C1([2H])c1ccc(C(=O)O)cc1S(=O)(=O)Nc1cc(C#N)ccc1N1CCCCC1 [Example 335, 3-(N-(5-cyano-2-(piperidin-1-yl)phenyl)sulfamoyl)-4-(cyclopropyl-d5)benzoic acid] | < 0.5
9 | Cc1cc(C#N)cc(NS(=O)(=O)c2cc(C(=O)O)ccc2C2CC2)c1N1CCCCC1 [Example 336, 3-(N-(5-cyano-3-methyl-2-(piperidin-1-yl)phenyl)sulfamoyl)-4-cyclopropylbenzoic acid] | < 0.5
10 | CC(C)(C)c1ccc(C(=O)O)cc1S(=O)(=O)Nc1cc(C#N)ccc1N1CCCCC1 [Example 337, 4-(tert-butyl)-3-(N-(5-cyano-2-(piperidin-1-yl)phenyl)sulfamoyl)benzoic acid] | < 5
11 | C#Cc1ccc(C(=O)O)cc1S(=O)(=O)Nc1cc(C#N)ccc1N1CCCCC1 [Example 338, 3-(N-(5-cyano-2-(piperidin-1-yl)phenyl)sulfamoyl)-4-ethynylbenzoic acid] | > 5
